Reference: patent publication US8865624B2, “Inhibitor for tobacco axillary bud growth and method for inhibiting tobacco axillary bud growth” (SDS Biotech K.K., priority 2010, dated 2014)
Where two headings read alike, the source gives them in different places. Values belong to the compound of their own block, whether it stands above or below them.

Columns and labels:
[1] = tested on: Tobacco Michinoku 1 (burley cultivar) axillary buds; experiment: Tobacco axillary bud growth inhibition test, burley cultivar; assay type: in vivo; conditions: Nicotiana tabacum, 672 h, 28 days after the spraying; for pest or weed control at 0.5 %: concentration of active ingredient 0.5%; for pest or weed control at 0.1 %: concentration of active ingredient 0.1%; for pest or weed control at 0.35 %: concentration of active ingredient 0.35%; for pest or weed control at 0.03 %: concentration of active ingredient 0.03%; for pest or weed control at 0.05 %: concentration of active ingredient 0.05%; for pest or weed control at 0.2 %: concentration of active ingredient 0.2%; for pest or weed control at 2.6 %: concentration of active ingredient 2.6%
Protocol: (§1) Tobacco seedlings of Tsukuba 1 (flue-cured cultivar) and Michinoku 1 (burley cultivar) were transplanted to 1/5000a Wagner pots filled with Kureha garden nursery soil. The plants were grown in a glasshouse, and the floral axis parts were removed at the time of single-flower bloom of tobacco (top pruning).
(§2) The formulations of the inhibitors for tobacco axillary bud growth obtained in Formulation Examples 1 to 10 above were each diluted with water to predetermined concentrations, and 20 ml of the water-diluted solutions of the respective inhibitors were separately sprayed using a contact-type axillary bud inhibitor spraying instrument equipped with a spot exhaust nozzle (Examples 1 to 11 and 12 to 22). In addition, butralin (trade name: Blue Ribbon) (Comparative Examples 1 and 3) and decyl alcohol (trade name: Contact) (Comparative Examples 2 and 4) were used for tests as comparative examples in the same manner as above. In the cases of both the flue-cured cultivar and burley cultivar, one plant was planted per pot, and the tests were carried out in duplicate.
(§3) For the respective cases, states of inhibition of axillary bud growth 28 days after the spraying were investigated together with untreated groups sprayed with no inhibitor, and axillary bud growth inhibition ratios were calculated by the following equation. Axillary bud growth inhibition ratio=(fresh weight of axillary buds per plant of untreated group−fresh weight of axillary buds per plant of treated group)÷(fresh weight of axillary buds per plant of untreated group)×100 [Math. 1]
(§4) The formulation of Formulation Example 1 (cafenstrole), Formulation Example 2 (thenylchlor) or Formulation Example 10 (propisochlor) above was diluted with water to predetermined concentrations and mixed with decyl alcohol (manufactured by Wako Pure Chemical Industries, Ltd.), 2-ethylhexanol (manufactured by Wako Pure Chemical Industries, Ltd.) or geraniol (manufactured by Wako Pure Chemical Industries, Ltd.) at predetermined concentrations, and the resultant was adjusted and used for tests (Examples 23 to 31 and 32 to 40). In addition, as comparative examples, the formulation of Formulation Example 1, […], or Formulation Example 10 diluted with water to predetermined concentrations (Comparative Examples 5 to 7 and 11 to 13) and decyl alcohol, 2-ethylhexanol or geraniol diluted with water to a predetermined concentration were used for tests (Comparative Examples 8 to 10 and 14 to 16).
(§5) The respective inhibitors were sprayed in the same manner as in Test Example 1, and states of inhibition of axillary bud growth 28 days after the spraying were investigated together with untreated groups sprayed with no inhibitor. Then, axillary bud growth inhibition ratios were calculated.
(§6) The formulation of Formulation Example 11 (cafenstrole), Formulation Example 12 (thenylchlor) or Formulation Example 13 (chlorthal-dimethyl) above was diluted with water to predetermined concentrations, and the resultant was mixed, adjusted and used for tests (Examples 41 to 58 and 59 to 76). In addition, as comparative examples, the formulation of Formulation Example 11, Formulation Example 12 or Formulation Example 13 diluted with water to predetermined concentrations (Comparative Examples 21 to 29 and 34 to 42), butralin (trade name: Blue Ribbon) (Comparative Examples 17, 18, 30, and 31) and decyl alcohol (trade name: Contact) (Comparative Examples 19, 20, 32, and 33) were used for tests in the same manner as above.

[2] = tested on: Tobacco Tsukuba 1 (flue-cured cultivar) axillary buds; experiment: Tobacco axillary bud growth inhibition test, flue-cured cultivar; assay type: in vivo, Nicotiana tabacum; conditions: for pest or weed control at 0.5 %: concentration of active ingredient 0.5%; for pest or weed control at 0.2 %: concentration of active ingredient 0.2%
Protocol: as §1, §2, §3, §4, §5, §6

[3] = tested on: Tobacco Michinoku 1 (burley cultivar) leaves (first to fourth leaves from the top); experiment: Harmful effect of inhibitor on tobacco leaves, burley cultivar; assay type: in vivo, Nicotiana tabacum
Protocol: as §1, §2
(§7) Further, the presence or absence of the harmful effect of each inhibitor was evaluated in one of the following four categories depending on the degrees of growth inhibition, gangrene, change in color, deformation and the like of leaves (first to fourth leaves from the top).
(§8) Large: A severely harmful effect was observed.
(§9) Middle: A clearly harmful effect was observed.
(§10) Small: A slightly harmful effect was observed.
(§11) Absent: No harmful effect was observed.
as §6, §5

[4] = tested on: Tobacco Tsukuba 1 (flue-cured cultivar) leaves (first to fourth leaves from the top); experiment: Harmful effect of inhibitor on tobacco leaves, flue-cured cultivar; assay type: in vivo, Nicotiana tabacum
Protocol: as §1, §2, §7, §8, §9, §10, §11, §6, §5

[5] = Table 4, burley cultivar, read-out: Axillary bud growth inhibition ratio
[6] = Nicotiana tabacum, 672 h, Table 3, flue-cured cultivar, 28 days after the spraying, read-out: Axillary bud growth inhibition ratio
[7] = Table 2, burley cultivar, read-out: Axillary bud growth inhibition ratio
[8] = Table 2, burley cultivar, concentration of active ingredient 0.1%
[9] = Nicotiana tabacum, 672 h, Table 1, flue-cured cultivar, concentration of active ingredient 0.1%, 28 days after the spraying, read-out: Axillary bud growth inhibition ratio
[10] = Table 1, flue-cured cultivar, concentration of active ingredient 0.1%
[11] = read-out: Axillary bud growth inhibition ratio, Table 2, burley cultivar
[12] = read-out: Axillary bud growth inhibition ratio, Table 6, burley cultivar
[13] = Nicotiana tabacum, 672 h, read-out: Axillary bud growth inhibition ratio
[14] = Table 6, burley cultivar, read-out: Axillary bud growth inhibition ratio

Structure (SMILES): CCCCC(CC)CO (centres unmarked) [2-Ethylhexanol, 2-ethylhexanol]
pest or weed control at 0.5 % [1, 5]: 34%
pest or weed control at 0.5 % [2, 6]: 21%

Structure (SMILES): CCc1cccc(CC)c1N(COC)C(=O)CCl [Alachlor, alachlor]
pest or weed control at 0.1 % [1, 7]: 91%
Harmful effect of inhibitor [3, 8]: Absent
pest or weed control at 0.1 % [2, 9]: 97%
Harmful effect of inhibitor [4, 10]: Absent

Structure (SMILES): CCCCOCN(C(=O)CCl)c1c(CC)cccc1CC [Butachlor, butachlor]
pest or weed control at 0.1 % [1, 7]: 96%
Harmful effect of inhibitor ([3]; in vivo): Absent
pest or weed control at 0.1 % [2, 9]: 100%
Harmful effect of inhibitor ([4]; in vivo): Absent

Structure (SMILES): CCC(C)Nc1c([N+](=O)[O-])cc(C(C)(C)C)cc1[N+](=O)[O-] (centres unmarked) [Butralin, butralin]
pest or weed control at 0.35 % [1, 11]: 96%
pest or weed control at 0.03 % [1, 12]: 48%
pest or weed control at 0.35 % [1, 12]: 97%
pest or weed control at 0.03 % [2, 13]: 44%
pest or weed control at 0.35 % [2, 13]: 98%
Axillary bud growth inhibition ratio ([2]; Table 5, flue-cured cultivar, concentration of active ingredient 0.35%, 28 days after the spraying): 98%

Structure (SMILES): CCN(CC)C(=O)n1cnc(S(=O)(=O)c2c(C)cc(C)cc2C)n1 [Cafenstrole]
pest or weed control at 0.1 % [1, 11]: 99%
pest or weed control at 0.05 % ([1]; read-out: Axillary bud growth inhibition ratio, Table 4, burley cultivar): 72%
pest or weed control at 0.002 % ([1]; read-out: Axillary bud growth inhibition ratio, Table 6, burley cultivar, concentration of active ingredient 0.002%): 15%
pest or weed control at 0.005 % ([1]; read-out: Axillary bud growth inhibition ratio, Table 6, burley cultivar, concentration of active ingredient 0.005%): 19%
pest or weed control at 0.01 % ([1]; read-out: Axillary bud growth inhibition ratio, Table 6, burley cultivar, concentration of active ingredient 0.01%): 25%
Harmful effect of inhibitor [3, 8]: Absent
Harmful effect of inhibitor ([3]; Table 6, burley cultivar, concentration of active ingredient 0.002%): Absent
Harmful effect of inhibitor ([3]; Table 6, burley cultivar, concentration of active ingredient 0.005%): Absent
Harmful effect of inhibitor ([3]; Table 6, burley cultivar, concentration of active ingredient 0.01%): Absent
pest or weed control at 0.002 % [2, 13]: 17%
pest or weed control at 0.005 % [2, 13]: 20%
pest or weed control at 0.01 % [2, 13]: 23%
pest or weed control at 0.05 % [2, 13]: 76%
pest or weed control at 0.1 % [2, 13]: 100%
Harmful effect of inhibitor [4, 10]: Absent
Harmful effect of inhibitor ([4]; Table 5, flue-cured cultivar, concentration of active ingredient 0.002%): Absent
Harmful effect of inhibitor ([4]; Table 5, flue-cured cultivar, concentration of active ingredient 0.005%): Absent
Harmful effect of inhibitor ([4]; Table 5, flue-cured cultivar, concentration of active ingredient 0.01%): Absent

Harmful effect of inhibitor ([3]; in vivo): Absent
Harmful effect of inhibitor ([4]; in vivo): Absent
Structure (SMILES): COC(=O)c1c(Cl)c(Cl)c(C(=O)OC)c(Cl)c1Cl [Chlorthal-dimethyl, chlorthal-dimethyl]
pest or weed control at 0.05 % [1, 14]: 39%
pest or weed control at 0.1 % [1, 14]: 71%
pest or weed control at 0.2 % [1, 14]: 82%
pest or weed control at 0.05 % ([2]; Nicotiana tabacum, 672 h, Table 5, flue-cured cultivar, concentration of active ingredient 0.05%, 28 days after the spraying, read-out: Axillary bud growth inhibition ratio): 43%
pest or weed control at 0.1 % ([2]; Nicotiana tabacum, 672 h, Table 5, flue-cured cultivar, concentration of active ingredient 0.1%, 28 days after the spraying, read-out: Axillary bud growth inhibition ratio): 78%
pest or weed control at 0.2 % ([2]; Nicotiana tabacum, 672 h, Table 5, flue-cured cultivar, 28 days after the spraying, read-out: Axillary bud growth inhibition ratio): 88%

Structure (SMILES): CCCCCCCCCCO [Decyl alcohol, decyl alcohol]
pest or weed control at 2.6 % [1, 7]: 92%
pest or weed control at 0.5 % [1, 5]: 46%
pest or weed control at 0.03 % [1, 14]: 0%
pest or weed control at 2.6 % [1, 14]: 94%
pest or weed control at 2.6 % ([2]; Nicotiana tabacum, 672 h, Table 1, flue-cured cultivar, concentration of active ingredient 2.6%, 28 days after the spraying, read-out: Axillary bud growth inhibition ratio): 91%
pest or weed control at 0.5 % [2, 6]: 42%
pest or weed control at 0.03 % ([2]; Nicotiana tabacum, 672 h, Table 5, flue-cured cultivar, concentration of active ingredient 0.03%, 28 days after the spraying, read-out: Axillary bud growth inhibition ratio): 0%
Axillary bud growth inhibition ratio ([2]; Table 5, flue-cured cultivar, concentration of active ingredient 2.6%, 28 days after the spraying): 91%

Structure (SMILES): COCC(C)N(C(=O)CCl)c1c(C)csc1C (centres unmarked) [Dimethenamid, dimethenamid]
pest or weed control at 0.1 % [1, 7]: 94%
Harmful effect of inhibitor ([3]; in vivo): Absent
pest or weed control at 0.1 % [2, 9]: 92%
Harmful effect of inhibitor ([4]; in vivo): Absent

Structure (SMILES): CCN(C(=O)n1nnn(-c2ccccc2Cl)c1=O)C1CCCCC1 [Fentrazamide, fentrazamide]
pest or weed control at 0.1 % [1, 7]: 92%
Harmful effect of inhibitor [3, 8]: Absent
pest or weed control at 0.1 % [2, 9]: 94%
Harmful effect of inhibitor [4, 10]: Absent

Structure (SMILES): CC(C)=CCC/C(C)=C/CO [Geraniol, geraniol]
pest or weed control at 0.5 % [1, 5]: 28%
pest or weed control at 0.5 % [2, 6]: 30%

Structure (SMILES): CCC1(CC2(c3cccc(Cl)c3)CO2)C(=O)c2ccccc2C1=O (centres unmarked) [Indanofan]
pest or weed control at 0.1 % [1, 7]: 95%
Harmful effect of inhibitor ([3]; in vivo): Absent
pest or weed control at 0.1 % [2, 9]: 100%
Harmful effect of inhibitor ([4]; in vivo): Absent

Structure (SMILES): CCc1cccc(C)c1N(C(=O)CCl)C(C)COC (centres unmarked) [Metolachlor, metolachlor]
pest or weed control at 0.1 % [1, 7]: 91%
Harmful effect of inhibitor [3, 8]: Absent
pest or weed control at 0.1 % [2, 9]: 95%
Harmful effect of inhibitor [4, 10]: Absent

Structure (SMILES): CCCOCCN(C(=O)CCl)c1c(CC)cccc1CC [Pretilachlor]
pest or weed control at 0.1 % [1, 7]: 92%
Harmful effect of inhibitor [3, 8]: Absent
pest or weed control at 0.1 % [2, 9]: 93%
Harmful effect of inhibitor [4, 10]: Absent

Harmful effect of inhibitor ([3]; in vivo): Absent
Harmful effect of inhibitor ([4]; in vivo): Absent
Structure (SMILES): CCc1cccc(C)c1N(COC(C)C)C(=O)CCl [Propisochlor, propisochlor]
pest or weed control at 0.1 % [1, 7]: 84%
pest or weed control at 0.2 % [1, 7]: 95%
pest or weed control at 0.1 % [1, 5]: 83%
pest or weed control at 0.1 % [2, 9]: 86%
pest or weed control at 0.2 % ([2]; Nicotiana tabacum, 672 h, Table 1, flue-cured cultivar, 28 days after the spraying, read-out: Axillary bud growth inhibition ratio): 98%
Axillary bud growth inhibition ratio ([2]; Table 3, flue-cured cultivar, concentration of active ingredient 0.1%, 28 days after the spraying): 86%
